{
  "source": "patent US20170290801A1",
  "about": "(Hill's Pet Nutrition, Inc., priority 2009, published 2017)",
  "test": "in vivo",
  "set-up": "species or system dogs",
  "settings": "dog; for AUC0-infinity / AUC(0-inf): po; for AUC(0-inf): AUC0-infinity",
  "description": "The control food without ALA is fed throughout the study period. The analytical results of the foods fed in this study are in Table 1. A three period Latin square design was used to create a 3×3 factorial arrangement of treatments with dogs assigned to a group following a planned treatment assignment. […] Pharmacokinetic parameters are calculated using a non-compartmental model and analyzed using non-parametric tests of WinNonlin 4.1 in SAS v9.]. There was a significant effect of dose for all delivery methods (P<0.05). […]",
  "data": [
    {"smiles": "O=C(O)CCCCC1CCSS1", "note": "(racemic) [lipoic acid, dl-alpha-lipoic acid]", "values": [
      {"measurement": "elimination half life, co-manufactured food compared with capsule", "value": "greater"},
      {"measurement": "maximum serum concentrations, effect of delivery method", "value": "lower maximum serum concentrations"},
      {"measurement": "total area under the curve, co-manufactured food compared with capsule", "value": "greater"},
      {"measurement": "AUC0-infinity", "setting": "12.5 mg/kg", "value": 92215, "unit": "ng·min/mL"},
      {"measurement": "AUC(0-inf)", "setting": "12.5 mg/kg", "value": 1240, "unit": "ng·h/mL"},
      {"measurement": "AUC0-infinity", "setting": "25 mg/kg", "value": 227304, "unit": "ng·min/mL"},
      {"measurement": "AUC(0-inf)", "setting": "25 mg/kg", "value": 3580, "unit": "ng·h/mL"}
    ]}
  ]
}
